The test system of experiment [1] is GL261. In words: Anti-proliferative activity against mouse GL261 cells assessed as cell viability incubated for 2 hrs by CCK8 assay. In kind it is functional, cell-based. Particulars: GL261, 2 h.
Experiment [2] has as its system U-87 MG. The experiment can be described thus: Anti-proliferative activity against human U-87 MG cells assessed as cell viability incubated for 2 hrs by CCK8 assay. It counts as functional, cell-based, U-87MG ATCC. (In general: Formazan colour is commonly taken as a measure of viable cells.)
Experiment [3] relates to U-87 MG. In words: Anti-proliferative activity against human U-87 MG cells assessed as inhibition rate incubated for 48 hrs by CCK8 assay. In kind it is functional, cell-based. Particulars: U-87MG ATCC.
The test system of experiment [4] is GL261. The experiment can be described thus: Anti-proliferative activity against […] GL261 cells assessed as inhibition rate incubated for 48 hrs by CCK8 assay. In kind it is functional, cell-based.

For 31 compounds, IC50 and inhibition results are on record in ChEMBL document CHEMBL5370642, “Synthesis and Bioevaluation of 3-(Arylmethylene)indole Derivatives: Discovery of a Novel ALK Modulator with Antiglioblastoma Activities” (J Med Chem, 2023).

One may read the IC50 as the concentration needed to halve the response being measured.

Calls of active or inactive are those of the source. The rule behind the calls is not given here.

In the case of `Cc1cc(Cc2cn(C(=O)c3ccc(Cl)cc3)c3ccccc23)cc(C)c1O`, the 50% inhibitory concentration (IC50) in the experiment on GL261 [1] is 100 µM; in the experiment with U-87 MG [2] it was 41.3 µM.
The matching figures for `CCn1cc(Cc2cc(C)c(O)c(C)c2)c2ccccc21`: 100 µM and more than 100 µM.
For `Cc1ccc(S(=O)(=O)n2cc(Cc3cc(C)c(O)c(C)c3)c3cc([N+](=O)[O-])ccc32)cc1`, in that order: 19.7 µM and 23.2 µM.
For `Cc1cc(Cc2c[nH]c3ccc([N+](=O)[O-])cc23)cc(C)c1O`, in that order: 43.8 µM and 74.6 µM.
As to `COc1ccc2c(c1)c(Cc1cc(C)c(O)c(C)c1)cn2S(=O)(=O)c1ccc(C)cc1`, the IC50 with GL261 [1] was 56.1 µM; in the experiment with U-87 MG [2] it was 28.1 µM.
The matching figures for `Cc1cc(Cc2cn(C(=O)c3ccc(N4CCOCC4)cc3)c3ccccc23)cc(C)c1O`: 12.7 µM and 12.6 µM.
With `Cc1ccc(S(=O)(=O)n2cc(Cc3cc(C(C)C)c(O)c(C(C)C)c3)c3ccccc32)cc1`, the results for the IC50 with GL261 [1] and in the experiment with U-87 MG [2] were 90.3 µM and 75.4 µM, respectively.
The matching figures for `Cc1cc(Cc2cn(Cc3ccc(Cl)cc3)c3ccccc23)cc(C)c1O`: 54.9 µM and 87.8 µM.
Take `Cc1ccc(S(=O)(=O)n2cc(Cc3cc(C)c(O)c(C)c3)c3cc(NC(=O)CCCC[C@@H]4SC[C@@H]5NC(=O)N[C@@H]54)ccc32)cc1`: the inhibition entry in the experiment on U-87 MG [3] and in the experiment with GL261 [4] was “Active” in each case.
Turning to `Cc1ccc(S(=O)(=O)n2cc(Cc3cc(C)c(O)c(C)c3)c3cc(C#N)ccc32)cc1`, the figures for the IC50 in the experiment with GL261 [1] and in the experiment with U-87 MG [2] were 9.6 µM and 30.2 µM, respectively.
The matching figures for `Cc1cc(Cc2c[nH]c3ccc(F)cc23)cc(C)c1O`: 19.2 µM and 55.1 µM.
The matching figures for `Cc1cc(Cc2c[nH]c3ccccc23)cc(C)c1O`: 12.8 µM and more than 100 µM.
Consider `Cc1ccc(S(=O)(=O)n2cc(Cc3cc(C)c(O)c(C)c3)c3cc(F)ccc32)cc1`, for which the results for the IC50 in the experiment with GL261 [1] and in the experiment with U-87 MG [2] were 100 µM and 42.6 µM, respectively.
Take `C[C@@H](Oc1cc(-c2cnn(C3CCNCC3)c2)cnc1N)c1c(Cl)ccc(F)c1Cl` [CRIZOTINIB]: the IC50 worked out at 3.43 µM in the experiment on GL261 [1] and 7.29 µM in the experiment with U-87 MG [2].
On to `Cc1cc(Cc2cn(C(=O)c3ccc(N4CCN(C)CC4)cc3)c3ccccc23)cc(C)c1O`, for which the concentration for half-maximal inhibition (IC50) in the experiment on GL261 [1] was determined as 3.49 µM; in the experiment with U-87 MG [2] it was 5.59 µM.
As to `Cc1ccc(S(=O)(=O)n2cc(Cc3cc(C)c(O)c(C)c3)c3cc(C)ccc32)cc1`, the figures for the IC50 in the experiment with GL261 [1] and in the experiment on U-87 MG [2] were 12.3 µM and 20.7 µM, respectively.
For `CC(C)c1cccc(C(C)C)c1O` [PROPOFOL], the figures for the IC50 in the experiment on GL261 [1] and in the experiment on U-87 MG [2] were 100 µM and more than 100 µM, respectively.
The matching figures for `COc1ccc2c(Cc3cc(C)c(O)c(C)c3)cn(S(=O)(=O)c3ccc(C)cc3)c2c1`: 38.5 µM and 10.4 µM.
The matching figures for `CCC(=O)n1cc(Cc2cc(C)c(O)c(C)c2)c2ccccc21`: 2850 µM and 100 µM.
The matching figures for `Cc1cc(Cc2cn(S(C)(=O)=O)c3ccccc23)cc(C)c1O`: 100 µM and more than 100 µM.
Consider `Cc1cc(Cc2cn(C(=O)c3ccnc4ccccc34)c3ccccc23)cc(C)c1O`, for which the results for the IC50 with GL261 [1] and with U-87 MG [2] were 11.4 µM and more than 100 µM, respectively.
The matching figures for `Cc1cc(Cc2cn(S(=O)(=O)c3ccc([N+](=O)[O-])c(Cl)c3)c3ccccc23)cc(C)c1O`: 15.7 µM and 3.52 µM.
The matching figures for `Cc1cc(Cc2cn(C)c3ccccc23)cc(C)c1O`: 12.7 µM and 7.96 µM.
For `Cc1cc(Cc2cn(C(=O)c3ccc([N+](=O)[O-])cc3)c3ccccc23)cc(C)c1O`, in that order: 100 µM and more than 100 µM.
For the compound `OCc1c[nH]c2ccccc12` [INDOLE-3-CARBINOL], the results for the IC50 in the experiment with GL261 [1] and in the experiment with U-87 MG [2] were 100 µM and more than 100 µM, respectively.
On to `CC(=O)n1cc(Cc2cc(C)c(O)c(C)c2)c2ccccc21`, for which the IC50 with GL261 [1] was determined as 25.4 µM; in the experiment with U-87 MG [2], 58.3 µM.
For `Cc1cc(Cc2cn(S(=O)(=O)c3ccc([N+](=O)[O-])cc3)c3ccccc23)cc(C)c1O`, in that order: 100 µM and more than 100 µM.
The matching figures for `COc1c(C)cc(Cc2cn(S(=O)(=O)c3ccc(C)cc3)c3ccccc23)cc1C`: 100 µM and more than 100 µM.
For `Cc1cc(Cc2cn(C(=O)c3ccncn3)c3ccccc23)cc(C)c1O`, in that order: 13.3 µM and more than 100 µM.
In the case of `Cc1ccc(S(=O)(=O)n2cc(Cc3cc(C(C)(C)C)c(O)c(C(C)(C)C)c3)c3ccccc32)cc1`, the half-maximal inhibitory concentration (IC50) in the experiment on GL261 [1] was 100 µM; with U-87 MG [2], more than 100 µM.
For `Cc1cc(Cc2cn(S(=O)(=O)c3ccc(Br)cc3)c3ccccc23)cc(C)c1O`, in that order: 100 µM and more than 100 µM.
